Legend:
[1] = tested on: Ang II induced protein degradation in murine myotubes; test: Ang II-induced protein degradation in murine myotubes; format: cell-based; conditions: AT 100 μM, 2 h prior to addition of Ang II
Description: To investigate the mechanism by which AT protects lean body mass in cachexia, further experiments were carried out in vitro using murine myotubes as a surrogate model of skeletal muscle. Incubation with either PIF or angiotensin II (Ang II) induced protein degradation with a characteristic bell-shaped dose-response curve as previously reported (Smith et al., 2004, Br. J. Cancer, and Tisdale et al., 2006, Cell. Sig) with the maximal effect of PIF at 4.2 nM and Ang II at 0.5 μM (FIGS. 5 and 8).

[2] = tested on: 20S proteasome α-subunits; test: Western blot of gastrocnemius muscle: 20S proteasome α-subunits; format: in vivo, NMRI mice; conditions: 40 mg/kg s.c., 3 times per day
Description: (§1) Administration of alpha-trinositol. Mice (n=6) bearing the MAC16 tumour were treated with AT (40 mg/kg) s.c., 3 times per day, for 5 days, while a control group received PBS. Protein synthesis and degradation were determined by the incorporation and release of L-[2,6-^3H]phenylalanine, as described in Smith et al., Cancer Res., 2005; 65:277-83. On the fourth day of treatment half of the group administered 0.4 mmol/L L-[2,6-^3H]phenylalanine in PBS (100 μl) by i.p. administration.
(§2) Western blot analysis Gastrocnemius muscle (10 mg) was homogenised in Phosphosafe™ Extraction Reagent (500 μl) and centrifuged at 15000 g for 15 min. Samples of the cytosolic proteins (5 μg) were loaded on either a 10% (mTOR, myosin, eIF4E and eIF4G) 12% (PKR, eIF2α and actin) or 15% (4E-BP1) sodium dodecylsulphate-polyacrylamide gel (SDS-PAGE) and electrophoresed at 180 V for approximately 1 h. The extent of phosphorylation of 4E-BP1, and the association of 4E-BP1 and eIF4G with eIF4E was determined by Western blotting when eIF4E was extracted from the muscle samples by m^7GTP-Sepharose 4B-affinity binding, as previously described Eley ey al., Biochem J., 2007; 407:113-20, by loading 20 μg of protein. […] Blots were scanned by a densitometer to quantify differences.

[3] = tested on: PKR; test: Western blot of gastrocnemius muscle: phospho PKR/total PKR; format: in vivo, NMRI mice; conditions: 40 mg/kg; tumour-bearing animals
Description: as §1, §2

[4] = tested on: eIF2α; test: Western blot of gastrocnemius muscle: phospho eIF2α/total eIF2α; format: in vivo, NMRI mice; conditions: 40 mg/kg; tumour-bearing animals
Description: as §1, §2

[5] = tested on: eIF4G.eIF4E complex; test: Western blot after m7GTP-Sepharose extraction: active eIF4G.eIF4E complex; format: in vivo, NMRI mice; conditions: 40 mg/kg
Description: as §1, §2

Compound: O=P(O)(O)O[C@@H]1[C@H](OP(=O)(O)O)[C@H](O)[C@@H](O)[C@H](O)[C@H]1OP(=O)(O)O [alpha-trinositol, 1-D-Myo-inositol 1,2,6-triphosphate]
- effect on Ang II-induced protein degradation [1]: completely attenuated protein degradation down to basal levels
- expression of the 20S proteasome α-subunits in gastrocnemius muscle [2]: down-regulates
- expression of phospho PKR (ratio phosphoPKR/total PKR) [3]: significant decrease
- expression of phospho eIF2α (ratio to total eIF2α) [4]: significant decrease
- tumour-induced decrease in formation of the active eIF4G.eIF4E complex [5]: completely attenuated

— patent US20100261682A1, “Method and Means for the Treatment of Cachexia” (Bioneris AB, priority 2007, published 2010)
